Assay results as given in publication PMC7501296, “Rapid and direct control of target protein levels with VHL-recruiting dTAG molecules” (Nature Communications, 2020).
Like-named read-outs stand apart in the source and are kept apart here. Blank lines part the entries; values can stand above or below the compound they belong to.

What was measured:
[1] = Pharmacokinetic evaluation in mice; assay type: in vivo, C57BL/6J male mice; conditions: for exposure (AUCinf) / half-life (T1/2): intraperitoneal administration at 10 mg kg^−1
Text: For IP injections, dTAG-13 and dTAG^V-1 were formulated by dissolving into DMSO and then diluting with 20% solutol (Sigma): 0.9% sterile saline (Moltox) (w:v) with the final formulation containing 5% DMSO. […] Formulations were stable at room temperature for 7 days. For IV injections, dTAG-13 and dTAG^V-1 were formulated by dissolving into DMSO and then diluting with 5% solutol (Sigma): 0.9% sterile saline (Moltox) (w:v) with the final formulation containing 5% DMSO. All procedures for PK studies were compliant with ethical regulations for animal testing and research, and were approved by and performed in accordance with standards of the Institute Animal Care and Use Committee (IACUC) at Scripps Florida. Housing conditions for mice at Scripps Florida were as follows: lights on = 7 AM, lights off = 7 PM, average ambient temperature = 72 °F, and average humidity = 45%. PK was assessed in 8-week-old C57BL/6J male mice (Jackson Laboratory, #000664) with blood collected at 0.08, 0.25, 0.5, 1, 2, 4, 6, and 8 h (2 mg kg^−1 dTAG-13 intravenous (IV) tail vein, 10 mg kg^−1 dTAG-13 intraperitoneal (IP), and 2 mg kg^−1 dTAG^V-1 IV tail vein administrations) and 0.25, 0.5, 1, 2, 4, 6, 8, 24 and 48 h (2 mg kg^−1 dTAG^V-1 IP and 10 mg kg^−1 dTAG^V-1 IP administrations). Plasma was generated by centrifugation and plasma concentrations were determined by LC-MS/MS following the mass transition 49600à340 AMU. PK parameters were calculated using Phoenix WinNonlin to determine peak plasma concentration (Cmax), oral bioavailability (%F), exposure (AUC), half-life (t1/2), clearance (CL), and volume of distribution (Vd).

[2] = target: T1, FKBP12^F36V-GFP (Homo sapiens, UniProt P62942, F37V); assay: Immunoblot of EWS502 FKBP12F36V-GFP cells; assay type: cell-based; conditions: 24 h
T1 construct: expressed in transfected cells; host or cells: EWS502 (lentiviral pLEX_305-dTAG-GFP)
T1 sequence (P62942 2-108 F37V limits assumed): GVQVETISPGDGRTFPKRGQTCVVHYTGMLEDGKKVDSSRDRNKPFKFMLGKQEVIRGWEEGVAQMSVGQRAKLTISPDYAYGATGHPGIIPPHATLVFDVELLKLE
Protocol: To generate 293T^WT FKBP12^F36V-KRAS^G12V and 293T^VHL−/− FKBP12^F36V-KRAS^G12V cells, concentrated lentiviral supernatants[6] were applied to 293T^WT and 293T^VHL−/− cells[33] in the presence of 4 µg mL^−1 polybrene and transduced cell lines were selected with 2 µg mL^−1 puromycin. To generate EWS502 FKBP12^F36V-GFP cells, EWS502 cells were transduced with pLEX_305-dTAG-GFP lentiviral supernatant and selected with 1 µg mL^−1 puromycin. To generate EWS502 FKBP12^F36V-EWS/FLI; EWS/FLI^−/− cells, EWS502 cells were co-transduced with pLEX_305-dTAG-EWS/FLI and lentiCRISPR v2-Blast-sgFLI_Ex9 lentiviral supernatants. Cells were then selected with both 1 µg mL^−1 puromycin (pLEX_305-dTAG-EWS/FLI) and 5 µg mL^−1 blasticidin (lentiCRISPR v2-Blast-sgFLI_Ex9). Knockout of endogenous EWS/FLI and the expression of exogenous FKBP12^F36V-EWS/FLI were confirmed by immunoblot and pooled transduced cell populations were employed for this study. […]
PATU-8902 LACZ-FKBP12^F36V and FKBP12^F36V-KRAS^G12V; KRAS^−/− cells and 293T cells were lysed with RIPA buffer supplemented with cOmplete protease inhibitors (Roche), PhosSTOP phosphatase inhibitors (Roche), and 0.1% benzonase (Novagen). […] Membranes were washed three times with TBS-T, incubated with the appropriate fluorescently labeled infrared secondary antibodies, washed again three times with TBS-T, and assessed using an Odyssey CLx Imager (LI-COR)[6],[15]. […]

[3] = male, C57BL/6J, mouse, plasma, IP, 2 mg kg-1
[4] = male, C57BL/6J, mouse, plasma, IP, 10 mg kg-1
[5] = male, C57BL/6J, mouse, plasma, IV, 2 mg kg-1

- AUCinf ([1]; IP, 10 mg kg-1): 6140 ng·h/mL
- AUClast ([1]; IP, 10 mg kg-1): 5619 ng·h/mL
- CL ([1]; IP, 10 mg kg-1): 28 mL/min/kg
- Cmax ([1]; IP, 10 mg kg-1): 1263 ng/mL
- T1/2 ([1]; IP, 10 mg kg-1): 2.41 h
- Tmax ([1]; IP, 10 mg kg-1): 2.00 h
- AUCinf ([1]; IV, 2 mg kg-1): 1253 ng·h/mL
- AUClast ([1]; IV, 2 mg kg-1): 1242 ng·h/mL
- CL ([1]; IV, 2 mg kg-1): 32.5 mL/min/kg
- Cmax ([1]; IV, 2 mg kg-1): 2373 ng/mL
- T1/2 ([1]; IV, 2 mg kg-1): 1.46 h
- Tmax ([1]; IV, 2 mg kg-1): 0.08 h
- Vss ([1]; IV, 2 mg kg-1): 1.8 L/kg
- exposure (AUCinf) [1]: 6140 ng·h/mL
- half-life (T1/2) [1]: 2.41 h
- FKBP12F36V-GFP degradation, immunoblot [2]: effectively degraded
Compound: CC[C@H](C(=O)N1CCCC[C@H]1C(=O)O[C@H](CCc1ccc(OC)c(OC)c1)c1ccccc1OCC(=O)NCCCCCCOc1cccc2c1C(=O)N(C1CCC(=O)NC1=O)C2=O)c1cc(OC)c(OC)c(OC)c1 (some centres unmarked) [dTAG-13]

Compound: CC[C@H](C(=O)N1CCCC[C@H]1C(=O)O[C@H](CCc1ccc(OC)c(OC)c1)c1ccccc1OCC(=O)NCCCCCCC(=O)N[C@H](C(=O)N1C[C@H](O)C[C@H]1C(=O)N[C@@H](C)c1ccc(-c2scnc2C)cc1)C(C)(C)C)c1cc(OC)c(OC)c(OC)c1 [dTAG^V-1]
- CL ([1]; IP, 2 mg kg-1): 10.7 mL/min/kg
- CL ([1]; IP, 10 mg kg-1): 9.05 mL/min/kg
- exposure (AUCinf) [1]: 18,517 h ng mL^−1
- half-life (T1/2) [1]: 4.43 h
- AUC(0-inf) [1, 3]: 3140 ng·h/mL
- AUC(0-t) [1, 3]: 2240 ng·h/mL
- half-life [1, 3]: 218 min
- Cmax ([1]; male, C57BL/6J, mouse, plasma, IP, 2 mg kg-1, read-out: Cmax): 595 ng/mL
- Tmax ([1]; male, C57BL/6J, mouse, plasma, IP, 2 mg kg-1, read-out: Tmax): 1.67 h
- AUC(0-inf) [1, 4]: 18500 ng·h/mL
- AUC(0-t) [1, 4]: 18100 ng·h/mL
- half-life [1, 4]: 266 min
- Cmax ([1]; male, C57BL/6J, mouse, plasma, IP, 10 mg kg-1, read-out: Cmax): 2120 ng/mL
- Tmax ([1]; male, C57BL/6J, mouse, plasma, IP, 10 mg kg-1, read-out: Tmax): 2 h
- AUC(0-inf) [1, 5]: 3330 ng·h/mL
- AUC(0-t) [1, 5]: 3240 ng·h/mL
- clearance [1, 5]: 10.1 mL/min/kg
- half-life [1, 5]: 181 min
- Cmax ([1]; male, C57BL/6J, mouse, plasma, IV, 2 mg kg-1, read-out: Cmax): 7780 ng/mL
- Tmax ([1]; male, C57BL/6J, mouse, plasma, IV, 2 mg kg-1, read-out: Tmax): 0.08 h
- Vd ([1]; male, C57BL/6J, mouse, plasma, IV, 2 mg kg-1, read-out: Vss): 0.56 L/kg
- FKBP12F36V-GFP degradation, immunoblot [2]: effectively degraded
